As a reminder, the inhibition is the percentage by which the read-out fell short of the control. Usually IC50 stands for the concentration that inhibits the measured activity by half.

The structures appear in SMILES notation.

The results in this text go back to patent US8828985B2, “Carbamate and urea inhibitors of 11-beta-hydroxysteroid dehydrogenase 1” (Vitae Pharmaceuticals, Inc., priority 2008, dated 2014).

The assay deals with human 11β-HSD1 (Homo sapiens, UniProt P28845). The experiment in a line: biochemical. Particulars: for inhibition at 0.1 µM / inhibition at 0.111 µM: 1.5 h; for inhibition at 0.1 µM: read-out: Biological Test Example 2 Average % inhibition at 100 nm, at 100 nm; for IC50: Biological Test Example 2 IC50 Range, microsomes from CHO cells overexpressing human 11β-HSD1, SPA; for inhibition at 0.111 µM: read-out: Biological Test Example 2 Average % inhibition at 111 nm, at 111 nm.
human 11β-HSD1, sequence (P28845 whole entry): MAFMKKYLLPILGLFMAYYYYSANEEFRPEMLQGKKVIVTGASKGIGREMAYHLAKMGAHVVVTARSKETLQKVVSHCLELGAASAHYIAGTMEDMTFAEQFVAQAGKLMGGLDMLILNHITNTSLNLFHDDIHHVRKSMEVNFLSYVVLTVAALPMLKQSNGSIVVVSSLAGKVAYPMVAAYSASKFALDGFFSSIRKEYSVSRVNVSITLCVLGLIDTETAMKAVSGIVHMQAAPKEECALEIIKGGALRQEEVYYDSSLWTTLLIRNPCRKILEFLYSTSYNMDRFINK

As to `O=C(NC1CC1)c1ccc2nc(N[C@@H]3CCN(C(=O)O[C@H]4C5CC6CC4C[C@](O)(C6)C5)C3)sc2c1` [Example 103, (R)-(trans-1-hydroxy-4-adamantyl) 3-(6-(cyclopropylcarbamoyl)benzo[d]thiazol-2-ylamino)pyrrolidine-1-carboxylate], the inhibition at 0.1 µM amounted to 88.8% and the IC50 was less than 0.1 µM. The corresponding values for `N#Cc1ccc2nc(N[C@@H]3CCN(C(=O)O[C@H]4C5CC6CC4C[C@](O)(C6)C5)C3)ccc2c1` [Example 90, (R)-(trans-1-hydroxy-4-adamantyl) 3-(6-cyanoquinolin-2-ylamino)pyrrolidine-1-carboxylate] are 95.6% and less than 0.1 µM.

As for `NC(=O)c1cnc(N[C@@H]2CCN(C(=O)O[C@H]3C4CC5CC3C[C@](O)(C5)C4)C2)c(Cl)c1` [Example 92, (R)-(trans-1-hydroxy-4-adamantyl) 3-(5-carbamoyl-3-chloropyridin-2-ylamino)pyrrolidine-1-carboxylate], the inhibition at 0.1 µM stood at 60.2% and the IC50 is less than 0.1 µM. Taken in the same sequence, the figures for `CNC(=O)c1cc(Cl)cnc1N[C@@H]1CCN(C(=O)O[C@H]2C3CC4CC2C[C@](O)(C4)C3)C1` [Example 98, (R)-(trans-1-hydroxy-4-adamantyl) 3-(5-chloro-3-(methylcarbamoyl)pyridin-2-ylamino)pyrrolidine-1-carboxylate] were 91.1% and less than 0.1 µM. On to `O=C(NC1CC1)c1cc(Cl)cnc1N[C@@H]1CCN(C(=O)O[C@H]2C3CC4CC2C[C@](O)(C4)C3)C1` [Example 101, (R)-(trans-1-hydroxy-4-adamantyl) 3-(5-chloro-3-(cyclopropylcarbamoyl)pyridin-2-ylamino)pyrrolidine-1-carboxylate], for which the inhibition at 0.1 µM is 82.6% and the IC50 is less than 0.1 µM. On to `N#Cc1cncc(N[C@@H]2CCN(C(=O)O[C@H]3C4CC5CC3C[C@](O)(C5)C4)C2)n1` [Example 81, (R)-(trans-1-hydroxy-4-adamantyl) 3-(6-cyanopyrazin-2-ylamino)pyrrolidine-1-carboxylate], for which the inhibition at 0.1 µM came out at 54.4% and the IC50 was less than 0.1 µM. The corresponding values for `N#Cc1ccc(N[C@@H]2CCN(C(=O)O[C@H]3C4CC5CC3C[C@](O)(C5)C4)C2)cc1` [Example 78, (R)-(trans-1-hydroxy-4-adamantyl) 3-(4-cyanophenylamino)pyrrolidine-1-carboxylate] are 80.1% and less than 0.1 µM. On to `CC(C)(C)OC(=O)NC1(c2ccccc2)CCN(C(=O)NC2C3CC4CC(C3)CC2C4)C1` (centres unmarked) [Example 60, tert-butyl 1-(2-adamantylcarbamoyl)-3-phenylpyrrolidin-3-ylcarbamate], for which the inhibition at 0.111 µM amounted to 83.3% and the IC50 was less than 0.1 µM. As for `CC(C)(C)OC(=O)NC1(C(F)(F)F)CCN(C(=O)O[C@H]2C3CC4CC2C[C@](C(N)=O)(C4)C3)C1` (stereo partly drawn) [Example 113, (trans-1-carbamoyl-4-adamantyl) 3-(tert-butoxycarbonylamino)-3-(trifluoromethyl)pyrrolidine-1-carboxylate], the inhibition at 0.1 µM was 92% and the IC50 is less than 0.1 µM. Taken in the same sequence, the figures for `Cc1cc(N[C@@H]2CCN(C(=O)O[C@H]3C4CC5CC3C[C@](C(N)=O)(C5)C4)C2)nc(C)n1` [Example 33, (R)-(trans-1-carbamoyl-4-adamantyl) 3-(2,6-dimethylpyrimidin-4-ylamino)pyrrolidine-1-carboxylate] were 78.6% and less than 0.1 µM. In the case of `O=C(O[C@H]1C2CC3CC1C[C@](O)(C3)C2)N1CC[C@@H](Nc2nc3ccc(Cl)cc3s2)C1` [Example 97, (R)-(trans-1-hydroxy-4-adamantyl) 3-(6-chlorobenzo[d]thiazol-2-ylamino)pyrrolidine-1-carboxylate], the inhibition at 0.1 µM came out at 91.1% and the IC50 is less than 0.1 µM. Taken in the same sequence, the figures for `N#Cc1ccc(N[C@@H]2CCN(C(=O)O[C@H]3C[C@H]4CC[C@@H](C3)N4C(N)=O)C2)nc1` [Example 105, (3R)-8-carbamoyl-8-azabicyclo[3.2.1]octan-3-yl 3-(5-cyanopyridin-2-ylamino)pyrrolidine-1-carboxylate] were 14.8% and greater than 0.1 µM. With `NC(=O)[C@]12CC3CC(C1)[C@@H](OC(=O)N1CC[C@@H](Nc4nnc(C(F)(F)F)s4)C1)C(C3)C2` [Example 42, (R)-(trans-1-carbamoyl-4-adamantyl) 3-(5-(trifluoromethyl)-1,3,4-thiadiazol-2-ylamino)pyrrolidine-1-carboxylate], the inhibition at 0.1 µM came out at 79.3% and the half-inhibitory concentration (IC50) was less than 0.1 µM. For the compound `NC(=O)C1CC2CCCC(C1)C2OC(=O)N1CC[C@@H](Nc2ccc(C(F)(F)F)cn2)C1` (stereo partly drawn) [Example 71, (3R)-3-carbamoylbicyclo[3.3.1]nonan-9-yl 3-(5-(trifluoromethyl)pyridin-2-ylamino)pyrrolidine-1-carboxylate], the inhibition at 0.1 µM worked out at 84.2%, the inhibition at 0.111 µM amounted to 82.6% and the IC50 is less than 0.1 µM. As to `CN(c1cccc(C(F)(F)F)n1)C1CCN(C(=O)OC2C3CC4CC2CC(C(N)=O)(C4)C3)C1` (stereo not drawn) [Example 45, (trans-1-carbamoyl-4-adamantyl) 3-(methyl(6-(trifluoromethyl)pyridin-2-yl)amino)pyrrolidine-1-carboxylate], the inhibition at 0.1 µM was 97.7% and the IC50 was less than 0.1 µM. As to `NC(=O)C12CC3CC(C1)C(OC(=O)N1CC[C@@H](Nc4ncccc4F)C1)C(C3)C2` (stereo partly drawn) [Example 63, (R)-(trans-1-carbamoyl-4-adamantyl) 3-(3-fluoropyridin-2-ylamino)pyrrolidine-1-carboxylate], the inhibition at 0.1 µM was 98.4% and the IC50 is less than 0.1 µM. In the case of `N#Cc1cccnc1N[C@@H]1CCN(C(=O)O[C@H]2C3CC4CC2C[C@](O)(C4)C3)C1` [Example 80, (R)-(trans-1-hydroxy-4-adamantyl) 3-(3-cyanopyridin-2-ylamino)pyrrolidine-1-carboxylate], the IC50 was less than 0.1 µM. Turning to `N#Cc1ccc2nc(N[C@@H]3CCN(C(=O)O[C@H]4C5CC6CC4C[C@](O)(C6)C5)C3)cnc2c1` [Example 91, (R)-(trans-1-hydroxy-4-adamantyl) 3-(6-cyanoquinoxalin-2-ylamino)pyrrolidine-1-carboxylate], the inhibition at 0.1 µM stood at 63.6% and the IC50 is less than 0.1 µM. Consider `O=C(O[C@H]1C2CC3CC1C[C@](O)(C3)C2)N1CC[C@@H](Nc2ncc(Cl)cc2[N+](=O)[O-])C1` [Example 93, (R)-(trans-1-hydroxy-4-adamantyl) 3-(5-chloro-3-nitropyridin-2-ylamino)pyrrolidine-1-carboxylate], for which the IC50 is less than 0.1 µM.

`CN(c1ccc(C#N)cn1)C1CCN(C(=O)O[C@H]2C3CC4CC2C[C@](C(N)=O)(C4)C3)C1` (stereo partly drawn) [Example 74, (trans-1-carbamoyl-4-adamantyl) 3-((5-cyanopyridin-2-yl)(methyl)amino)pyrrolidine-1-carboxylate]: the inhibition at 0.1 µM worked out at 97.8%, the inhibition at 0.111 µM was determined as 96.5% and the IC50 is less than 0.1 µM.

For `CC(C)(C)OC(=O)N(CCO)[C@@H]1CCN(C(=O)O[C@H]2C3CC4CC2C[C@](C(N)=O)(C4)C3)C1` [Example 28, (R)-(1-carbamoyl-4-adamantyl) 3-(tert-butoxycarbonyl(2-hydroxyethyl)amino)pyrrolidine-1-carboxylate], the IC50 was less than 0.1 µM.
